# Entries after “also recorded” stand apart in the source; their conditions may differ.
# Key:
# [1] = target: T1, Hsp72 (HSPA1) (Homo sapiens, UniProt P0DMV8); test: Biolayer interferometry (Octet Red), Hsp72; format: binding; details: immobilized full length Hsp72
# T1 construct: Biotinylated human Hsc70NBD or full length Hsp72 were first immobilized; made in house
# Description: Binding of MKT-077 analogs to immobilized Hsp70 was evaluated using a competitive ELISA. In this established assay, a biotinylated version of MKT-077 is bound to immobilized human Hsc70 (HSPA8) and potential competitors are tested for their ability to block the interaction. […] As further controls, the truncated compounds YM-02, YM-03, YM-04 and YM-07 were tested.
# Biotinylated human Hsc70NBD or full length Hsp72 were first immobilized on super streptavidin biosensors (ForteBio, 18-5057) as follows: biosensors were soaked with MG buffer (100 mM Tris base, 20 mM KCl, 6 mM MgCl2, 0.01% Triton X-100, pH 7.4) for 10 min before moving them to wells either containing 200 μL […] biotinylated proteins or […] biocytin for 60 min. The free streptavidin sites were subsequently quenched with […] biocytin for 10 min. The biosensors were washed with MG buffer for 5 min prior to beginning the binding experiments. The association and disassociation steps were carried out in MG buffer with a constant 10% DMSO concentration. All steps were performed at room temperature and with 1000 rpm rotary shaking. […] The apparent affinities of YM-08 for Hsc70NBD and Hsp72 were calculated from both equilibrium measurements and global fits of the kon and koff values, yielding similar values.
# [2] = target: prokaryotic Hsp70 (DnaK) binding to denatured luciferase (Escherichia coli, UniProt P0A6Y8); test: Luciferase binding assay; format: biochemical; details: 50 μM
# Sequence of prokaryotic Hsp70 (DnaK) binding to denatured luciferase (P0A6Y8 whole entry): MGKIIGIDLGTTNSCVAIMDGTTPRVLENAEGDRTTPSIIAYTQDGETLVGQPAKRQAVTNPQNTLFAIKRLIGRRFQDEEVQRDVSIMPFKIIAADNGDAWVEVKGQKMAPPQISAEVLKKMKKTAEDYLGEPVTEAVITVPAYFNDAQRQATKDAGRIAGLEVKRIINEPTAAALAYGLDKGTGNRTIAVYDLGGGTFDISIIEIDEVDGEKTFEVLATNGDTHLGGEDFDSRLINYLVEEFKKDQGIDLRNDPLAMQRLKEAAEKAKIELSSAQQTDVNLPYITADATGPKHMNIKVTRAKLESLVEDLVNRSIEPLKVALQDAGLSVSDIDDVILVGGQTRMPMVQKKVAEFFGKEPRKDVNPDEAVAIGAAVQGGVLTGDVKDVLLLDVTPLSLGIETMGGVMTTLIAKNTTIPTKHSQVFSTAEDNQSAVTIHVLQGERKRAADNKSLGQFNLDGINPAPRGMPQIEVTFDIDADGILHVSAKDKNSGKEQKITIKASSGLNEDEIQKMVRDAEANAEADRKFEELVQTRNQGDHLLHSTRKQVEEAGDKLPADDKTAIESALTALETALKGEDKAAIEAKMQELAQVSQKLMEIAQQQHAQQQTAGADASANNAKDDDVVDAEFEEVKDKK
# Description: (§1) Next, the effect of chaperone functions by binding of YM-08 to Hsp70 was investigated. […] This profile is shared with other allosteric Hsp70 inhibitors. As another test of chaperone function, the effects of the compounds on the binding of Hsp70 to a misfolded protein were measured. In previous work, MKT-077 stabilized the interaction between prokaryotic Hsp70 (DnaK) and denatured luciferase. Briefly, this assay involves immobilizing unfolded luciferase in microtiter plates and measuring binding to DnaK. […] To explore whether YM-08 might also enhance binding of Hsp70 to a more physiologically relevant substrate, binding of tau to immobilized human Hsc70 was measured.
# (§2) Binding of prokaryotic Hsp70 (DnaK) to denatured luciferase was measured as previously described, in e.g., Miyata, et al., J. Biomol. Screen, 15:1211-1219 (2010). Briefly, firefly luciferase (0.2 mg/mL) was proteolyzed with trypsin and immobilized in 96-well microtiter plates. After washing, the binding of luciferase to DnaK (500 nM) was measured using an anti-DnaK antibody and HRP secondary antibody. A similar strategy was used to monitor binding of human Hsc70 to tau, as previously described in Thompson, et al., ACS Chem. Biol., 7:1677-1686 (2012).
# [3] = target: T2, human Hsc70 (Homo sapiens, UniProt P11142); test: Binding of tau to immobilized human Hsc70; format: biochemical
# T2 construct: made in house
# T2 sequence (P11142 2-646): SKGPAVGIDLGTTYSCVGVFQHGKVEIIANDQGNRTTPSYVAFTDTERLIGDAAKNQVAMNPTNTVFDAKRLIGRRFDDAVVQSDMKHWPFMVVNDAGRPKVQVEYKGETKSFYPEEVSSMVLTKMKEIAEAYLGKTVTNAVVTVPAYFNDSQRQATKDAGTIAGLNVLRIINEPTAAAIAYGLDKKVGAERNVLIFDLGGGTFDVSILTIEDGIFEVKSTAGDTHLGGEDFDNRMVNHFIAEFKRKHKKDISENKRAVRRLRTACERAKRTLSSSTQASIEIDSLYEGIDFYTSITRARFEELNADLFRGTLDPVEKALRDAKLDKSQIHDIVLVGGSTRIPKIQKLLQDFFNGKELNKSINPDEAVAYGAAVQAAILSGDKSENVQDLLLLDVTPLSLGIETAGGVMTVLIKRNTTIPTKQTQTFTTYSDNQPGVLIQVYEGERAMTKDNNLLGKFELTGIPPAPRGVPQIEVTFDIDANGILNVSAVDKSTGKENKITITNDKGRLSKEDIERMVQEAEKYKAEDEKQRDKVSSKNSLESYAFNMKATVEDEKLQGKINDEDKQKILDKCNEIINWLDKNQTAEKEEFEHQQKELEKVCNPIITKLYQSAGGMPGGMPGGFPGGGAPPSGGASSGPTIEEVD
# Description: as §1, §2
# [4] = test system: human 4R0N tau in HeLaC3 cells; test: Tau levels in HeLaC3 cells by Western blot; format: cell-based
# Description: To determine whether YM-08 might also accelerated tau degradation, HeLaC3 cells, which stably over-express human 4R0N tau, were treated with compound. After 24 hours, the levels of phosphorylated (p396/404) tau and total tau were measured by Western blot. […] This cellular activity is not as dramatic as that of MKT-077, which reduced tau levels by >80% at 30 μM (FIG. 4D); however, reducing tau by only about 50% is predicted to provide benefits in some AD models.
# [5] = test system: MCF-7, MCF-10A and MB-MDA-231 cells; test: MTT assays, three cell lines; format: cell-based; details: range over MCF-7, MCF-10A and MB-MDA-231 cells
# Description: YM-08 was tested whether it might retain the anti-cancer activity of MKT-077.
# [6] = test system: MEF (C57BL/6); test: Cell survival, MEF; format: cell-based; details: Mus musculus; tau activity screen table; read-out: MEF IC50
# [7] = test system: phospho- and total tau in brain slices from transgenic P301L tau mice (Tg4510); test: Tau levels in transgenic brain slice cultures; format: cell-based, mouse; details: 30 and 100 μM, 6 hours
# Description: YM-08 activity in a more physiological system was tested. Brain slice cultures from transgenic mice that express mutated tau were treated for 6 hours with YM-08 and the levels of total- and pS396/404 tau measured by Western blots. […] To test whether YM-08 might selectively reduce tau after microtubule disruption, brain slices were cultured from wild type mice and treated them with YM-08 plus the microtubule destabilizer, nocodazole. […] Together, these studies add to growing evidence that Hsp70 selectively identifies tau variants that are not associated with the normal microtubule network, likely minimizing their aggregation and proteotoxicity.
# [8] = Liver microsome stability; format: in vitro ADME; details: human, liver microsomes
# [9] = Solubility in dosing vehicle; format: physicochemical
# Description: (A) Initial pharmacokinetics and biodistribution of YM-01 and YM-08. Compounds were suspended in buffered saline (YM-01) or 10% DMSO/saline (YM-08) and injected at 20 and 10 mg/kg, respectively. YM-08 was not soluble in saline or 10% DMSO/saline at 20 mg/kg. The levels of YM-08 in the brain at 1 hr after injection could not be accurately determined because its value was outside the calibration curve. […] Results are average from data acquired from three female mice. (C) YM-08 maintains a B/P ratio of nearly 0.25 for 18 hrs.
# The initial pharmacokinetics (PK) of YM-01 and YM-08 were tested in CD1 mice. […] After a single 6.6 mg/kg dose delivered i.v., the peak brain concentration of YM-08 was 4 μg/g (FIG. 7B) and the ratio in the brain:plasma (B/P) ratio was approximately 0.25 for 18 hrs (FIG. 7C). […] It is not yet clear how much tau levels need to be reduced to achieve therapeutic effects in disease models, but the area-under-the-curve (AUCinf) for YM-08 in the brain was 0.26 μg·hr/g and the AUCinf in plasma was 13.6 μg·hr/mL.
# T1 sequence (P0DMV8 whole entry): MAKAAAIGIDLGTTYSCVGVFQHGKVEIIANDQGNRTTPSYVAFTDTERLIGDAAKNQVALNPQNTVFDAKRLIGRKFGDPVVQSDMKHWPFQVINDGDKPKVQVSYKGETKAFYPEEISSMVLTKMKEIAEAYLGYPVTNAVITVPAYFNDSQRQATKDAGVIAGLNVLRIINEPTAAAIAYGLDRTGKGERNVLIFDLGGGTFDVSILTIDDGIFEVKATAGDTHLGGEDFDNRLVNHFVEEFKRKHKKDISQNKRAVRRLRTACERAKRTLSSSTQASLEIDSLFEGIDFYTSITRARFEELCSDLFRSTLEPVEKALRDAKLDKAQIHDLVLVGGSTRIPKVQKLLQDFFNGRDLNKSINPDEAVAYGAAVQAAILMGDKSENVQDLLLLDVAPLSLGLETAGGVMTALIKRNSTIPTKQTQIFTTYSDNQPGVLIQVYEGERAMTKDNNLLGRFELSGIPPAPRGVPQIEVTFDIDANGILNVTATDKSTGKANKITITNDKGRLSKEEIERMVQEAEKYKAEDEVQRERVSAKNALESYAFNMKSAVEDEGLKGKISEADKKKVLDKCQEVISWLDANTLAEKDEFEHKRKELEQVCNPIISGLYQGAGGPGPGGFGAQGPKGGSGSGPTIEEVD
smiles,measurement,setting,value
"CCn1c(=O)/c(=C2\Sc3ccccc3N2C)s/c1=C\c1ccccn1 [YM-08, (2Z,5E)-3-ethyl-5-(3-methylbenzo[d]thiazol-2(3H)-ylidene)-2-(pyridin-2-ylmethylene)thiazolidin-4-one]",Kd,[1],~2000 nM
same,enhancement of DnaK binding to denatured luciferase,[2],about 30%
same,affinity of chaperone for tau substrate,[3],enhanced the affinity
same,anti-tau activity in cells,[4],reduced phospho (p396/404) and total tau
same,decrease of pS396/404 tau level,"[4]; 30 μM, 24 hours",about 40%
same,decrease of total tau level,"[4]; 30 μM, 24 hours",about 60%
same,EC50,[5],7.8 to 10.5 µM
same,IC50,[6],4.2 ± 0.24 µM
same,phospho-tau level,[7],reduced phospho-tau
same,half-life,[8],2 to 4 min
same,half-life,[8]; figure legend,~4 min
same,solubility in saline or 10% DMSO/saline,[9],not soluble; also recorded: only marginally soluble

# Source: US9808448B2, “Pharmaceutical compounds and use of same in cancer and tauopathies” (THE REGENTS OF THE UNIVERSITY OF MICHIGAN, priority 2013, dated 2017)
